These results are taken from patent US5013741A, “N-[substituted alkylidene]-1,2,3,4-tetrahydro-9-acridinamines useful for enhancing the cholinergic function in a mammal” (priority 1988, dated 1991).

In one experiment the target is acetylcholinesterase. Briefly: Acetylcholinesterase Inhibition Assay (photometric method of Ellman et al.). The class given is biochemical. (In Ellman's method for cholinesterases, released thiocholine reacts with DTNB.)
Experiment [1] concerns Scopolamine Induced Memory Deficit. As to the kind of experiment: Dark Avoidance Assay (scopolamine induced memory deficit reversal). The class given is in vivo. As to conditions: s.c., mice, retest after 24 hours. How it is done:
In this assay mice are tested for their ability to remember an unpleasant stimulus for a period of 24 hours. A mouse is placed in a chamber that contains a dark compartment; a strong incadescent light drives it to the dark compartment,where an electric shock is administered through metal plates on the floor. The animal is removed from the testing apparatus and tested again, 24 hours later, for the ability to remember the electric shock.
If scopolamine, an anticholinergic that is known to cause memory impairment, is administered before an animal's initial exposure to the test chamber, the animal re-enters the dark compartment shortly after being placed in the test chamber 24 hours later. This effect of scopolamine is blocked by an active test compound, resulting in a greater interval before re-entry into the dark compartment.
The results for an active compound are expressed as the percent of a group of animals in which the effect of scopolamine is blocked, as manifested by an increased interval between being placed in the test chamber and re-entering the dark compartment.

Chain of acetylcholinesterase (P22303 32-614): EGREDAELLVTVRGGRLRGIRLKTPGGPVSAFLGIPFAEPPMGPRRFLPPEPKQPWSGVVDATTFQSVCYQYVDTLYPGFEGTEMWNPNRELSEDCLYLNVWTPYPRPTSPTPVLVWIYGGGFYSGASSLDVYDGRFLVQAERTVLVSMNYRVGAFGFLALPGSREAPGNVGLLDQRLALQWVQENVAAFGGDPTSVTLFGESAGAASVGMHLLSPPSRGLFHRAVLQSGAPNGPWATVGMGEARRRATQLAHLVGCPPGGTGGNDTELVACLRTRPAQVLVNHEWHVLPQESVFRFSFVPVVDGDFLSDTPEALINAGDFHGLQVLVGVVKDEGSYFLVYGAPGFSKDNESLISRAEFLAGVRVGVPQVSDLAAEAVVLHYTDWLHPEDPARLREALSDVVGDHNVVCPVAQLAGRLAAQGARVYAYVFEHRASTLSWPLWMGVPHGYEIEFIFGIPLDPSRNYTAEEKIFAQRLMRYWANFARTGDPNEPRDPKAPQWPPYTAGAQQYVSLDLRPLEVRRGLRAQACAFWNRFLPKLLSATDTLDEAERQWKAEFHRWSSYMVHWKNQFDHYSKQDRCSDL

In general, IC50 refers to the point on the concentration scale where inhibition reaches its midpoint. A higher IC50 goes with weaker potency in that assay. Compound `Oc1ccccc1C=Nc1c2c(nc3ccccc13)CCCC2` [9-Amino-N-[(2-hydroxyphenyl)methylene]-1,2,3,4-tetrahydroacridine, hemi-fumarate] had an IC50 against acetylcholinesterase of 5100 nM.
`C(=Nc1c2c(nc3ccccc13)CCCC2)c1ccccc1` [N-Phenylmethylene-1,2,3,4-tetrahydro-9-acridinamine] gave an IC50 at acetylcholinesterase of 230 nM. Also, the figures for the “% of Animals with Scopolamine Induced Memory Deficit Reversal” value (“% of Animals” for short) in experiment [1] (0.31 mg/kg of body weight) and in experiment [1] (5.0 mg/kg of body weight) were 27% and 60%, respectively.
Take `CC[C@@H]1C(=O)OC[C@@H]1Cc1cncn1C` [Pilocarpine, reference compound]: the “% of Animals” value in experiment [1] (5.0 mg/kg of body weight) came to 13%.
With `Nc1c2c(nc3ccccc13)CCCC2` [Tacrine, 9-amino-1,2,3,4-tetrahydroacridine, reference compound], the “% of Animals” value in experiment [1] (0.63 mg/kg of body weight) was determined as 13%.
